Results reported in paper PMC10993450, “New benzimidazole derivative compounds with in vitro fasciolicidal properties” (Parasites & Vectors, 2024).
Several values for one entry are separate records, joined by “and”; a condition that tells them apart may be missing. Equal entries are not always repeated.

Legend:
[1] = Cytotoxicity assay, alamarBlue; assay type: cell-based, human; conditions: human, HepG2 cells; 72 h exposure, alamarBlue; read-out: CC50 Hep-G2
Method: The effect of the BZDs on cell viability was assessed on a human hepatocarcinoma HepG2 (ATCC® HB-8065™, USA) cell line. Only compounds screened at a concentration of 10 µM were evaluated. The detailed protocol is described in a previous study carried out by our research group. Briefly, 10,000 cells were seeded on 96-well plates and incubated with different concentrations of the compounds ranging from 1 to 100 µM at 37 °C and 5% CO2. After 72 h of exposure, viability of the cells was assessed using the alamarBlue (Fisher Scientific®, Spain) staining method according to the manufacturer’s recommendations.
The data are represented as mean ± standard error of media (SEM).

[2] = tested on: Fasciola hepatica eggs (ABZ-resistant isolate); assay: Egg hatch test (EHT), ABZ-resistant isolate; assay type: cell-based; conditions: 5 µM, mean ± SEM
Source text: F. hepatica eggs were recovered after washing the gallbladder of three naturally infected sheep belonging to a flock suspected to be resistant to ABZ. From these eggs, metacercariae were produced at the Centro de Investigaciones de Mabegondo (AGACAL, Xunta de Galicia, Spain) following a previous protocol. These metacercariae were used to infect eight sheep with a dose of 200 metacercariae. The infection was confirmed individually 3 months after the infection by coprological analysis using a sedimentation technique. At that point, sheep were randomly located in two groups of four animals: one treated with a therapeutic dose of ABZ (7.5 mg/kg) and the other one only with water, as control group. To assess the efficacy of ABZ in this isolate, all sheep were humanely euthanized by an intravenous administration of a lethal dose of sodium pentobarbital (Dolethal®, Vetoquinol, Spain) 2 weeks later for fluke recovery and counting. Afterwards, the in vivo efficacy of ABZ was calculated as the percentage of adult worm reduction compared with the untreated control. Additionally, the number of eggs per gram of feces (EPG) was estimated on the treatment day (mentioned as day 0) and 14 days later to determine drug efficacy by means of the fecal egg count reduction test (FECRT).
During the necropsy, gallbladders from sheep belonging to the untreated group were taken to collect the eggs and carry out the in vitro EHT, while flukes collected from livers were used to conduct the adult viability test (AVT).
Those BZDs with an activity higher than 80% at a concentration of 10 µM were also screened on eggs and adults from the ABZ resistant isolate.
The in vitro EHT described in the current study was based on previous studies. Briefly, 100–120 eggs were incubated in 990 µL of water and 10 μL of each working solution at 25 °C in the dark for a period of 12 h. After incubation, eggs were gently washed with tap water three times to facilitate compound removal and kept in darkness at 25 °C for 14 days. After this period, eggs were exposed to light for 2 h to stimulate the hatching of eggs. Then, hatched and unhatched eggs were evaluated and counted using an optical microscope. The term “hatched eggs” includes both hatched and embryonated eggs. Negative control eggs were incubated with 10 μL of DMSO in 990 μL of water, reaching a maximum DMSO concentration of 1% (v/v), while ABZ at 0.5 µM was used as positive control. Each compound at a specific concentration was tested in triplicate in the same EHT and repeated at least two different days.
The efficacy of each compound and drug was calculated as its ovicidal activity following the formula below: Ovicidal activity%=100×%eggs hatched in negative control-%egg hatched after drug incubation/%egg hatched in control.

[3] = tested on: Caco2 cells; parameters: method as in doi:10.1016/j.molstruc.2022.133735; conditions: cited from earlier work

SMILES	CC50 at 72 h [1]	% Ovicidal activity resistant isolate [2]	% Ovicidal activity resistant isolate ([2]; listed as BZD-46)	% Ovicidal activity resistant isolate ([2]; listed as BZD-56)	CC50 [3]	% Ovicidal activity resistant isolate ([2]; listed as BZD-59)
Cc1ccc2[nH]c(NCc3cccs3)nc2c1 [BZD31]	> 50 µM	53% and 53.24 ± 20.94%	–	–	–	–
Cc1ccc2[nH]c(NC(=O)c3ccccc3)nc2c1 [BZD46]	> 100 µM	11.06 ± 05.30%	below 13%	–	–	–
COc1ccc2[nH]c(NC(=O)c3ccccc3)nc2c1 [BZD56]	> 100 µM	12.39 ± 03.71%	–	below 13%	–	–
O=C(Nc1nc2cc(Cl)ccc2[nH]1)c1ccccc1 [BZD59]	> 100 µM	06.28 ± 05.20%	–	–	~62 µM	below 13%
